Measured values taken from ChEMBL document CHEMBL3885861, “Open TG-GATES”.

Species on record: Rattus norvegicus
Assay: Open TG-GATES - Regimen: Daily Repeat
Assay type: toxicity, organism-based, Sprague-Dawley
Parameters: regimen Daily Repeat, gender Male, age 6 weeks
Details: in vivo, po, 400 mg/kg, route gavage, dose level High; for APTT / Bas / Eos / Fbg / Hb / Ht / Lym / MCH / MCHC / MCV / Mono / Neu / PT / Plat / RBC / Ret / WBC: tissue Blood; for KIDNEY_L / KIDNEY_R / KIDNEY_TOTAL: tissue Kidney; for LIVER: tissue Liver; for A/G / ALP / ALT / AST / BUN / CRE / Ca / Cl / DBIL / GLC / IP / K / LDH / Na / PL / RALB / TBIL / TC / TG / TP / gamma-GTP: tissue Plasma

## COc1ccc(Cc2nccc3cc(OC)c(OC)cc23)cc1OC [PAPAVERINE]
72 h, time 3 day
  TERMINAL_BW: 239.4 g
  APTT: 23.7 s
  Bas: 0%
  Eos: 1%
  Fbg: 314.4 mg/dL
  Hb: 13.5 g/dL
  Ht: 39.4%
  Lym: 73%
  MCH: 20.9 pg
  MCHC: 34.2%
  MCV: 61.1 fL
  Mono: 2%
  Neu: 23%
  PT: 15 s
  Plat: 111.3 x10_4/uL
  RBC: 644.8 x10_4/ul
  Ret: 5%
  WBC: 85.7 x10_2/uL
  KIDNEY_L: 1 g
  KIDNEY_R: 1.1 g
  KIDNEY_TOTAL: 2.1 g
  LIVER: 11.8 g
  A/G: 1.3
  ALP: 1542 IU/L
  ALT: 48.4 IU/L
  AST: 75.8 IU/L
  BUN: 16.6 mg/dL
  CRE: 0.1 mg/dL
  Ca: 10.9 mg/dL
  Cl: 107.4 meq/L
  DBIL: 0 mg/dL
  GLC: 179.8 mg/dL
  IP: 7.3 mg/dL
  K: 4.3 meq/L
  LDH: 160.2 IU/L
  Na: 143 meq/L
  PL: 148.4 mg/dL
  RALB: 3.1 g/dL
  TBIL: 0.008 mg/dL
  TC: 83 mg/dL
  TG: 78.4 mg/dL
  TP: 5.6 g/dL
  gamma-GTP: 1.4 IU/L
[…], time 7 day
  TERMINAL_BW: 267.4 g
  APTT: 24.2 s
  Bas: 0%
  Eos: 0.4%
  Fbg: 337.4 mg/dL
  Hb: 13.6 g/dL
  Ht: 40.4%
  Lym: 74.4%
  MCH: 20.9 pg
  MCHC: 33.7%
  MCV: 61.9 fL
  Mono: 3%
  Neu: 20.8%
  PT: 15.2 s
  Plat: 126.4 x10_4/uL
  RBC: 652 x10_4/ul
  Ret: 5.8%
  WBC: 107.2 x10_2/uL
  KIDNEY_L: 1.2 g
  KIDNEY_R: 1.2 g
  KIDNEY_TOTAL: 2.3 g
  LIVER: 13.4 g
  A/G: 1.2
  ALP: 1249.6 IU/L
  ALT: 42.6 IU/L
  AST: 68 IU/L
  BUN: 18 mg/dL
  CRE: 0.2 mg/dL
  Ca: 10.9 mg/dL
  Cl: 107 meq/L
  DBIL: 0 mg/dL
  GLC: 191.8 mg/dL
  IP: 7.2 mg/dL
  K: 4.2 meq/L
  LDH: 164 IU/L
  Na: 142 meq/L
  PL: 149.4 mg/dL
  RALB: 3.1 g/dL
  TBIL: 0 mg/dL
  TC: 79.4 mg/dL
  TG: 91 mg/dL
  TP: 5.8 g/dL
  gamma-GTP: 2 IU/L
[…], time 14 day
  TERMINAL_BW: 315.9 g
  APTT: 24.2 s
  Bas: 0%
  Eos: 1%
  Fbg: 321.6 mg/dL
  Hb: 14.1 g/dL
  Ht: 42.3%
  Lym: 75.4%
  MCH: 19.3 pg
  MCHC: 33.3%
  MCV: 58.2 fL
  Mono: 2.8%
  Neu: 19.2%
  PT: 15.4 s
  Plat: 128.5 x10_4/uL
  RBC: 728.6 x10_4/ul
  Ret: 4.3%
  WBC: 108.5 x10_2/uL
  KIDNEY_L: 1.4 g
  KIDNEY_R: 1.4 g
  KIDNEY_TOTAL: 2.7 g
  LIVER: 14.4 g
  A/G: 1.1
  ALP: 1494.6 IU/L
  ALT: 46.4 IU/L
  AST: 71 IU/L
  BUN: 17 mg/dL
  CRE: 0.2 mg/dL
  Ca: 10.5 mg/dL
  Cl: 106.8 meq/L
  DBIL: 0 mg/dL
  GLC: 183 mg/dL
  IP: 7.5 mg/dL
  K: 4.1 meq/L
  LDH: 142.6 IU/L
  Na: 142.8 meq/L
  PL: 143.8 mg/dL
  RALB: 3.1 g/dL
  TBIL: 0.02 mg/dL
  TC: 73.6 mg/dL
  TG: 81.8 mg/dL
  TP: 5.8 g/dL
  gamma-GTP: 2.4 IU/L
[…], time 28 day
  TERMINAL_BW: 373.4 g
  APTT: 25.6 s
  Bas: 0%
  Eos: 1%
  Fbg: 328 mg/dL
  Hb: 14.4 g/dL
  Ht: 43.7%
  Lym: 71.8%
  MCH: 18.6 pg
  MCHC: 33%
  MCV: 56.6 fL
  Mono: 2.2%
  Neu: 23.8%
  PT: 15.9 s
  Plat: 109.9 x10_4/uL
  RBC: 772.5 x10_4/ul
  Ret: 2.6%
  WBC: 94.3 x10_2/uL
  KIDNEY_L: 1.5 g
  KIDNEY_R: 1.5 g
  KIDNEY_TOTAL: 2.9 g
  LIVER: 16.5 g
  A/G: 1.1
  ALP: 1162 IU/L
  ALT: 47 IU/L
  AST: 69.5 IU/L
  BUN: 19.8 mg/dL
  CRE: 0.2 mg/dL
  Ca: 10.3 mg/dL
  Cl: 106.2 meq/L
  DBIL: 0 mg/dL
  GLC: 182 mg/dL
  IP: 6.6 mg/dL
  K: 4 meq/L
  LDH: 141 IU/L
  Na: 142.5 meq/L
  PL: 146.2 mg/dL
  RALB: 3.2 g/dL
  TBIL: 0.0075 mg/dL
  TC: 82.2 mg/dL
  TG: 86 mg/dL
  TP: 6.1 g/dL
  gamma-GTP: 2.2 IU/L
